Test results from PMC6941823, “A dispensable paralog of succinate dehydrogenase subunit C mediates standing resistance towards a subclass of SDHI fungicides in Zymoseptoria tritici” (PLoS Pathogens, 2019).
Read-outs that look alike come from different tables or passages of the source.

What was measured:
[1] = target: SQR of 06STD024 (SDHC / altC) mitochondria (Zymoseptoria tritici, UniProt A0A1X7RQW2+F9X9V6+F9XH52+O42772); assay: Succinate-quinone (SQR) SDHI sensitivity assay on purified mitochondria, 06STD024; type: biochemical
How it was run: (§1)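 Succinate:ubiquinone/DCPIP reductase inhibition measured on purified mitochondria from Zymoseptoria tritici strains carrying either a single C-subunit gene (ZtSDHC1, ZtSDHC1_A84I or ZtSDHC3) or both ZtSDHC1 and ZtSDHC3; pTet::SDHC3 transformant tested under repressed and induced conditions.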

[2] = target: SQR (SDHC) of D024 SDHC3 KO mitochondria (Zymoseptoria tritici, UniProt F9X9V6+F9XH52+O42772); assay: Succinate-quinone (SQR) SDHI sensitivity assay on purified mitochondria, 06STD024 SDHC3 KO; type: biochemical
How it was run: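 Mitochondria purified from each strain were used for succinate:ubiquinone/DCPIP reductase assays, with suspensions adjusted to similar initial velocity (1 OD595nm hour^-1). Inhibitor was tested at 0.047 nM–50 μM in 4x steps (11 concentrations plus DMSO). IC50 came from non-linear fits of absorbance slopes (OD/min) against log concentration.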

[3] = target: altC-SQR (altC) of D024 SDHC1 KO mitochondria (Zymoseptoria tritici, UniProt A0A1X7RQW2+F9X9V6+O42772); assay: Succinate-quinone (SQR) SDHI sensitivity assay on purified mitochondria, 06STD024 SDHC1 KO; type: biochemical; conditions: for RF (resistance factor), D024 SDHC1 KO (altC): IC50 ratio compared to IPO323 values
How it was run: as §1

[4] = test system: SQR (SDHC / altC) of IPO323 pTet::SDHC3 transformant, induced; assay: Succinate-quinone (SQR) SDHI sensitivity assay on purified mitochondria, IPO323 pTet::SDHC3 induced; type: biochemical, Zymoseptoria tritici; conditions: IPO323 pTet::SDHC3 transformant grown in the absence of doxycycline; mean of three ± SD
How it was run: as §1

[5] = target: SQR (SDHC / altC) of IPO323 pTet::SDHC3 transformant, repressed (Zymoseptoria tritici, UniProt A0A1X7RQW2+F9X9V6+F9XH52+O42772); assay: Succinate-quinone (SQR) SDHI sensitivity assay on purified mitochondria, IPO323 pTet::SDHC3 repressed; type: biochemical
How it was run: as §1

[6] = test system: Zymoseptoria tritici field and genetically modified strains; assay: Liquid culture assay for fungicide sensitivity determination; type: cell-based; conditions: Zymoseptoria tritici, liquid culture sensitivity
Protocol: Sensitivity towards commercial fungicides was determined for a set of 99 SHA-SDHI-naïve Z. tritici field isolates sampled in Europe between 2006 and 2009. The EC50 of these isolates was determined in liquid growth assays and the data obtained compared for each possible pair of SDHI fungicides (cross-resistance (XR) plots, Fig 1). […] Comparative succinate-quinone reductase (SQR) enzyme inhibition tests were performed with mitochondria extracted from a panel of SHA-SDHIs tolerant and sensitive isolates.
In order to characterize in more depth the mechanisms driving sensitivity differences across the isolates, a subset of eight isolates carrying the ZtSDHC3 gene was analyzed for their sensitivity to SDHIs, alt-SDHC expression and splicing patterns. Liquid culture growth sensitivity tests were performed to determine EC50s for this set of isolates towards a wide range of commercial and research SDHIs (S5 Table).
Pre-culture of the inoculum and fungicide sensitivity tests were performed following previously described procedures. Different ranges of inhibitor concentrations were used for population monitoring and for the detailed phenotyping of a selected set of individual field isolates and genetically modified strains. For fungicide sensitivity monitoring of European field populations, final inhibitors concentrations were between 100 mg.L^-1 and 0.0001 mg.L^-1 with uniform 10x dilution steps (7 inhibitor concentrations + DMSO control). For refined sensitivity analysis of a smaller panel of isolates final inhibitor concentrations ranged between 0.5 mM and 0.47 nM with uniform 4x dilution factor steps (11 inhibitor concentrations+ DMSO control).

[7] = test system: Zymoseptoria tritici isolates; assay: Growth tests on solid agar at discriminatory fungicide concentrations; type: cell-based; conditions: AE agar, pydiflumetofen 0.1 mg.L^-1, 18 DPI (procedure of Fig 6)
From the text: Fig 6 Resistance to SHA-SDHIs in Z. tritici EU populations. […] Sensitivity data are sorted by genotype according to the presence of the ZtSDHC3 gene. ** p value of 0.0029 in Welch’s corrected unpaired t-test. (B) Solid agar growth of a collection of 93 Z. tritici isolates sampled in 2009 (same set as above). Individual strains from this collection are boxed and numbered 1 to 93. Boxes A and B correspond to reference resistant strains 06STD024 and 07STGB009 respectively. Box C corresponds to IPO323 reference sensitive isolate. The yellow framed boxes correspond to strains carrying the ZtSDHC3 gene. Yellow arrow designates strain 09STIR20.1 (number 78) carrying a non-functional alt-SDHC (frameshift, S6 Table).
A large scale spotting assay of 96 isolates (Fig 6) was performed using the V&P 96 floating pin tool VP408FP6 (V&P Scientific), equipped with flat tip FP6 pins of 1.58 mm diameter (resulting in approx. 0.4 μl transfer volume). Source cultures for cell spotting were grown in 100 μl YPD liquid medium in a 96 well flat bottom plate (Corning, 3370) at 18°C for 11 days (average cell density of 3.5·10^6/ml), then diluted 1:2x in fresh YPD medium and incubated for another 1.5 h before transfer with the pin tool (approx. 700 cells per spot) onto AE agar with or without fungicide. Plates were incubated at 20°C in the dark for up to 18 days. Smaller scale spotting assays (Figs 4 and 8) were performed using 5 days V8-agar plates inoculums adjusted to 2.10^6 spores.mL^-1 in water and diluted in steps of 3. 2μL of spore suspension was spotted on the plates, and the plates were incubated shielded from light at 21°C for 6 days.

[8] = IC50 ratio compared to IPO323 values

altC-SQR (altC) of D024 SDHC1 KO mitochondria, sequence (A0A1X7RQW2 36-181): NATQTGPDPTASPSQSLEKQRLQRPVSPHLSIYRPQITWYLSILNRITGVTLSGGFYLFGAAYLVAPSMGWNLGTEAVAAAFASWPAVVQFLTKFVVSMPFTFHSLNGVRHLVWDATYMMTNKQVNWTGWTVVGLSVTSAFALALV
altC-SQR (altC) of D024 SDHC1 KO mitochondria, sequence (O42772 20-297): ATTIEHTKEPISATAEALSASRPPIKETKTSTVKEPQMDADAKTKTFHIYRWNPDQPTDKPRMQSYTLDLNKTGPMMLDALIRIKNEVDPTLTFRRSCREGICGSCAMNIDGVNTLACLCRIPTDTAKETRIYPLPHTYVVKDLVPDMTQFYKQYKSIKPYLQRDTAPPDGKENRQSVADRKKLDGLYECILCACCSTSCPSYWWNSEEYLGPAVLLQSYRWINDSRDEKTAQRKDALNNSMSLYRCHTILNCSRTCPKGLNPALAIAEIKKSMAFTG
altC-SQR (altC) of D024 SDHC1 KO mitochondria, sequence (F9X9V6 1-193): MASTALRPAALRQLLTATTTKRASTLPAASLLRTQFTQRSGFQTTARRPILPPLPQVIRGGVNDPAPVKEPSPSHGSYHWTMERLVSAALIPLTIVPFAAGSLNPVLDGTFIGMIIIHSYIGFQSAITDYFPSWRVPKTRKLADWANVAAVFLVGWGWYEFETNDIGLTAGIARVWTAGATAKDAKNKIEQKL
altC-SQR (altC) of D024 SDHC1 KO mitochondria, sequence (F9WWR1 41-643 partner): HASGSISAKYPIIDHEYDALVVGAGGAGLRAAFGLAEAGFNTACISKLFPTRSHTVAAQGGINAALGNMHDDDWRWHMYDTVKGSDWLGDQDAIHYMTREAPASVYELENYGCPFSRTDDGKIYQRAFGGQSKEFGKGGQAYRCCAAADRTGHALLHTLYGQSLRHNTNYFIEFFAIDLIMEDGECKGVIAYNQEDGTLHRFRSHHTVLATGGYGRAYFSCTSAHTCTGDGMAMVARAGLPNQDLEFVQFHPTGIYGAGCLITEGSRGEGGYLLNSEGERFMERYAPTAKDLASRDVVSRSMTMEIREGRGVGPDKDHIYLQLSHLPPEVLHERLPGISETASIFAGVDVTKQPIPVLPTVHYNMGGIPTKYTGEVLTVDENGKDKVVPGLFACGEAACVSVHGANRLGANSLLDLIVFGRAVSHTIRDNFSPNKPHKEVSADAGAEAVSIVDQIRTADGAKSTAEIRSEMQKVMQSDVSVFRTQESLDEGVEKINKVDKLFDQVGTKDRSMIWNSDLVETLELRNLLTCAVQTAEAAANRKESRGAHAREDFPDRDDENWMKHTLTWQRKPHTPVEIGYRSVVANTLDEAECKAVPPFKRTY
SQR (SDHC) of D024 SDHC3 KO mitochondria, sequence (F9XH52 44-187): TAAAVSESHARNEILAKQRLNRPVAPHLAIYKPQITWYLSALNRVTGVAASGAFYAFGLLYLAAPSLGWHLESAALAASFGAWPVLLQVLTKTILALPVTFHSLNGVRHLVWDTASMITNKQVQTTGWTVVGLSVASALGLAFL
SQR (SDHC) of D024 SDHC3 KO mitochondria, sequence (O42772 19-297): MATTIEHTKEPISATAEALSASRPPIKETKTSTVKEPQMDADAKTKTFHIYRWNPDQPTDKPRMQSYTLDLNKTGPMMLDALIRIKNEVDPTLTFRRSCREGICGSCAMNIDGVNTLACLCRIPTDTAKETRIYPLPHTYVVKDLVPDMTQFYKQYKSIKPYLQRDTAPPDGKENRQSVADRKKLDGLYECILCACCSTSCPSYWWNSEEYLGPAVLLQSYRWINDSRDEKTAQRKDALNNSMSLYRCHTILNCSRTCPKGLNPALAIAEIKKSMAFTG
SQR (SDHC) of D024 SDHC3 KO mitochondria, sequence (F9X9V6 1-193): as the sequence (F9X9V6 1-193) above
SQR (SDHC) of D024 SDHC3 KO mitochondria, sequence (F9WWR1 29-643 partner): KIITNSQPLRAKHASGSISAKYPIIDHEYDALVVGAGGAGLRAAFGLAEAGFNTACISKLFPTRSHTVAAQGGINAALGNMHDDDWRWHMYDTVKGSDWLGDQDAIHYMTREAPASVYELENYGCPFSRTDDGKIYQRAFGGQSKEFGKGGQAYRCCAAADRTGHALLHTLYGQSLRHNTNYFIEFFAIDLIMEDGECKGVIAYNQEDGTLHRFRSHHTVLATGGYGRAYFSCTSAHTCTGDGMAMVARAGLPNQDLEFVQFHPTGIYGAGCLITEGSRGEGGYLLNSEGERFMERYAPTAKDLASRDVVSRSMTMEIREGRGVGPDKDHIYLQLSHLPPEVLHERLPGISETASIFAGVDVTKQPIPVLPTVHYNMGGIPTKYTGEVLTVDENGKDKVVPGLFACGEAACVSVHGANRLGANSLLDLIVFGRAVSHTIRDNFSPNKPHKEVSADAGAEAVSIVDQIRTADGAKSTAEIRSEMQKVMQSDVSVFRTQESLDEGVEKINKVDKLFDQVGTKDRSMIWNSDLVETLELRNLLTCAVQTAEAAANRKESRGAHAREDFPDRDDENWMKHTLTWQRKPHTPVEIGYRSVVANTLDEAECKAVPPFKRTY
SQR (SDHC / altC) of IPO323 pTet::SDHC3 transformant, repressed, sequence (F9XH52 44-187): as the sequence (F9XH52 44-187) above
SQR (SDHC / altC) of IPO323 pTet::SDHC3 transformant, repressed, sequence (O42772 20-297): as the sequence (O42772 20-297) above
SQR (SDHC / altC) of IPO323 pTet::SDHC3 transformant, repressed, sequence (F9X9V6 1-193): as the sequence (F9X9V6 1-193) above
SQR (SDHC / altC) of IPO323 pTet::SDHC3 transformant, repressed, sequence (A0A1X7RQW2 36-181): as the sequence (A0A1X7RQW2 36-181) above
SQR (SDHC / altC) of IPO323 pTet::SDHC3 transformant, repressed, sequence (F9WWR1 41-643 partner): as the sequence (F9WWR1 41-643 partner) above

With CON(C(=O)c1cn(C)nc1C(F)F)[C@@H](C)Cc1c(Cl)cc(Cl)cc1Cl [Pydiflumetofen] the “RF (resistance factor), 06STD024 (SDHC / altC)” value [1, 8] was 4.6, the IC50 ([1]; mitochondria of field isolate 06STD024, mean of three ± SD) was 1.4 ± 0.05 nM and the “RF (resistance factor), D024 SDHC3 KO (SDHC)” value [2, 8] was 1.1. For the same molecule, the IC50 ([2]; mitochondria of 06STD024 ZtSDHC3 deletion mutant, mean of three ± SD) was 0.3 ± 0.07 nM, the “RF (resistance factor), D024 SDHC1 KO (altC)” value [3] was 4.9 and the “RF (resistance factor), D024 SDHC1 KO (altC)” value ([3]; listed as pydiflumetofen) was 6. For the same molecule, the IC50 ([3]; mitochondria of 06STD024 ZtSDHC1 deletion mutant (pure altC-SQR), mean of three ± SD) was 1.5 ± 0.4 nM, the IC50 [4] was 0.9 ± 0.3 nM and the “RF (resistance factor), pTet Repressed (SDHC / altC)” value [5, 8] was 1.7. For the same molecule, the IC50 ([5]; IPO323 pTet::SDHC3 transformant grown in presence of 30 mg.L^-1 doxycycline, mean of three ± SD) was 0.5 ± 0.1 nM, the EC50 ([6]; read-out: EC50 (nM) Mean, strain 06STD024) was 28.2 nM and the EC50 ([6]; read-out: EC50 (nM) Mean, strain 07STGB009) was 24.5 nM. The EC50 ([6]; read-out: EC50 (nM) Mean, strain 09STD041) was 19.8 nM, the EC50 ([6]; read-out: EC50 (nM) Mean, strain 09STD053) was 6.4 nM and the EC50 ([6]; read-out: EC50 (nM) Mean, strain 09STF011) was 17.8 nM. For the same molecule, the EC50 ([6]; read-out: EC50 (nM) Mean, strain 09STF037) was 8.1 nM, the EC50 ([6]; read-out: EC50 (nM) Mean, strain 09STF112) was 18.7 nM and the EC50 ([6]; read-out: EC50 (nM) Mean, strain 09STIR20.3) was 8.1 nM. For the same molecule, the EC50 ([6]; read-out: EC50 (nM) Mean, strain Flu21 (SDHC1_A84I)) was 163 nM, the EC50 ([6]; read-out: EC50 (nM) Mean, strain IPO323) was 4.5 nM and the EC50 ([6]; read-out: EC50 (nM) Mean, strain IPO94269) was 4.7 nM. The EC50 ([6]; read-out: EC50 (nM) Mean, strain KO_SDHC1_T1) was 377 nM, the EC50 ([6]; read-out: EC50 (nM) Mean, strain KO_SDHC1_T3) was 230 nM and the EC50 ([6]; read-out: EC50 (nM) Mean, strain KO_SDHC3_T4) was 5.1 nM. It also gave an EC50 ([6]; read-out: EC50 (nM) Mean, strain KO_SDHC3_T13) of 5.6 nM, an EC50 ([6]; read-out: EC50 (nM) Mean, strain pTet::SDHC3_I78A_T1) of 4.8 nM and an EC50 ([6]; read-out: EC50 (nM) Mean, strain pTet::SDHC3_I78A_T5) of 6 nM. The EC50 ([6]; read-out: EC50 (nM) Mean, strain pTet::SDHC3_I78A_T15) was 4.9 nM, the EC50 ([6]; read-out: EC50 (nM) Mean, strain pTet::SDHC3_I78A_T35) was 2.9 nM and the EC50 ([6]; read-out: EC50 (nM) Mean, strain pTet::SDHC3_T1) was 164 nM. It also gave an EC50 ([6]; read-out: EC50 (nM) Mean, strain pTet::SDHC3_T2) of 160 nM, an EC50 ([6]; read-out: EC50 (nM) Mean, strain pTet::SDHC3_T3) of 108 nM and an EC50 ([6]; read-out: EC50 (nM) Mean, strain pTet::SDHC3_T7) of 183 nM. The “Growth phenotype on SDHI-amended plate” value ([7]; strain 06STD024) was “Weak”, the “Growth phenotype on SDHI-amended plate” value ([7]; strain 06STD024, listed as pydiflumetofen) was “weak growth” and the “Growth phenotype on SDHI-amended plate” value ([7]; strain 07STGB009) was “Weak”. The “Growth phenotype on SDHI-amended plate” value ([7]; strain 07STGB009, listed as pydiflumetofen) was “weak growth”, the “Growth phenotype on SDHI-amended plate” value ([7]; strain 09STD041) was “Very weak” and the “Growth phenotype on SDHI-amended plate” value ([7]; strain 09STD053) was “No”. For the same molecule, the “Growth phenotype on SDHI-amended plate” value ([7]; strain 09STF011) was “Weak”, the “Growth phenotype on SDHI-amended plate” value ([7]; strain 09STF037) was “Very weak” and the “Growth phenotype on SDHI-amended plate” value ([7]; strain 09STF112) was “Very weak”. For the same molecule, the “Growth phenotype on SDHI-amended plate” value ([7]; strain 09STIR20.3) was “Very weak”, the “Growth phenotype on SDHI-amended plate” value ([7]; strain IPO323) was “No” and the “Growth phenotype on SDHI-amended plate” value ([7]; strain IPO94269) was “No”.
